Where two headings read alike, the source gives them in different places.
Experiments:
[1] = system: HUVEC intracellular acid phosphatase; format: biochemical, human
2008 acid phosphatase = assay: Km of substrate for acid phosphatase, 2008; format: biochemical; settings: 2008 human ovarian carcinoma; BBTP 1 mM, 1 h at RT
Text: (§1) Km of substrate for acid phosphatase for a variety of cells

[2] = system: HDMEC intracellular acid phosphatase; assay: acid phosphatase assay of HDMEC with AttoPhos/BBTP; format: biochemical, human; settings: for Fluorescence: A/2 plate
Protocol: (§2) To establish a relation between acid phosphatase activity and cell numbers, cells were seeded at various densities (50-20,000) onto replicate plastic 96-well plates or half area 96-well microtiter plates (Costar) and incubated at 37° C. for 3.5 hours to allow attachment. Cell number was then assessed by measuring intracellular acid phosphatase with three different substrates: p-nitrophenyl phosphate, which has a calorimetric endpoint, 4-methylumbelliferyl phosphate (MUP) and 2'-[2-benzthiazoyl]-6'-hydoxybenzothiazole phosphate bis-[2-amino-2-methyl-13-propanediol] salt (AttoPhos™), which have fluorometric endpoints.
(§3) Plates were incubated for 1 hour at room temperature and the reaction was terminated with 50 μL of stop solution (240 mM diethanolamine, pH 10). Fluorescence was measured at excitation wavelength of 450 nm and emission wavelength of 580 nm using a fluorimeter (Cytofluor 4000, PerSeptive Biosystems). Nonenzymatic hydrolysis was determined in wells containing no cells and subtracted from the experimental values. Since the background is subtracted, in general, the actual signal to noise ratios at lower cell numbers is better than what presented in the table.

HL-60 acid phosphatase = assay: Km of substrate for acid phosphatase, HL-60; format: biochemical; settings: HL-60 suspension, human promyelocytic leukemia; BBTP 1 mM, 1 h at RT
Text: as §1

K562 acid phosphatase = assay: Km of substrate for acid phosphatase, K562; format: biochemical; settings: K562 suspension, human chronic myelogenous leukemia; BBTP 1 mM, 1 h at RT
Text: as §1

Molt-4 acid phosphatase = assay: Km of substrate for acid phosphatase, Molt-4; format: biochemical; settings: Molt-4 suspension, human acute lymphoblastic leukemia; BBTP 1 mM, 1 h at RT
Text: as §1

[3] = system: 3T3 cells acid phosphatase; assay: acid phosphatase assay of 3T3 cells with AttoPhos/BBTP; format: biochemical, mouse; settings: for Fluorescence: 96-well plate, AttoPhos 500 μM
Protocol: as §2
as §3, with “After washing with D-PBS, 150 μL 0.5 mM AttoPhos™ in 0.1 M Tris-citrate (0.1 M Tris-base, 0.1 M citric acid, pH 6.5 containing 0.25% Triton X-100) was added to each well and placed on an orbital shaker for 5 minutes as described for MUP. Plates” for “Plates”

CHO-K1 acid phosphatase = assay: acid phosphatase assay of CHO-K1 with AttoPhos/BBTP; format: biochemical, Chinese hamster; settings: for Fluorescence: A/2 plate
Protocol: as §2, §3

T47-D acid phosphatase = assay: Km of substrate for acid phosphatase, T47-D; format: biochemical; settings: T47-D human breast carcinoma; BBTP 1.5 mM, 1 h at RT
Text: as §1

acid phosphatases = assay: Km of BBTP for acid phosphatases; format: biochemical; settings: see EXAMPLES
Text: as §1

Alkaline phosphatase = settings: reported in U.S. Pat. No. 5,424,440; read-out: Km of the substrate with alkaline phosphatase; cited from earlier work

**Q.** Which results are given for `O=P(O)(O)Oc1ccc2nc(-c3nc4ccccc4s3)sc2c1` [BBTP, 2'(2-benzothiazoyl)-6'-hydroxy-benzthiazole phosphate]?
**A.** Fluorescence ([1]; 625 HUVEC/well, 96-well plate, AttoPhos 250 μM): 1695 ± 65 RFU; Fluorescence ([1]; 625 HUVEC/well, 96-well plate, AttoPhos 500 μM): 1561 ± 39 RFU; Fluorescence ([1]; 625 HUVEC/well, half area 96-well (A/2) plate, AttoPhos 250 μM): 1867 ± 68 RFU; Fluorescence ([1]; 625 HUVEC/well, half area 96-well (A/2) plate, AttoPhos 500 μM): 2040 ± 55 RFU; Fluorescence ([1]; 1,250 HUVEC/well, 96-well plate, AttoPhos 250 μM): 2853 ± 180 RFU; Fluorescence ([1]; 1,250 HUVEC/well, 96-well plate, AttoPhos 500 μM): 2737 ± 106 RFU; Fluorescence ([1]; 1,250 HUVEC/well, half area 96-well (A/2) plate, AttoPhos 250 μM): 3438 ± 132 RFU; Fluorescence ([1]; 1,250 HUVEC/well, half area 96-well (A/2) plate, AttoPhos 500 μM): 3757 ± 132 RFU; Fluorescence ([1]; 2,500 HUVEC/well, 96-well plate, AttoPhos 250 μM): 5019 ± 188 RFU; Fluorescence ([1]; 2,500 HUVEC/well, 96-well plate, AttoPhos 500 μM): 5186 ± 125 RFU; Fluorescence ([1]; 2,500 HUVEC/well, half area 96-well (A/2) plate, AttoPhos 250 μM): 6664 ± 128 RFU; Fluorescence ([1]; 2,500 HUVEC/well, half area 96-well (A/2) plate, AttoPhos 500 μM): 7046 ± 240 RFU; Fluorescence ([1]; 5,000 HUVEC/well, 96-well plate, AttoPhos 250 μM): 10578 ± 119 RFU; Fluorescence ([1]; 5,000 HUVEC/well, 96-well plate, AttoPhos 500 μM): 10406 ± 498 RFU; Fluorescence ([1]; 5,000 HUVEC/well, half area 96-well (A/2) plate, AttoPhos 250 μM): 12807 ± 399 RFU; Fluorescence ([1]; 5,000 HUVEC/well, half area 96-well (A/2) plate, AttoPhos 500 μM): 14586 ± 498 RFU; Fluorescence ([1]; 10,000 HUVEC/well, 96-well plate, AttoPhos 250 μM): 20670 ± 967 RFU; Fluorescence ([1]; 10,000 HUVEC/well, 96-well plate, AttoPhos 500 μM): 21198 ± 240 RFU; Fluorescence ([1]; 10,000 HUVEC/well, half area 96-well (A/2) plate, AttoPhos 250 μM): 25684 ± 1488 RFU; Fluorescence ([1]; 10,000 HUVEC/well, half area 96-well (A/2) plate, AttoPhos 500 μM): 28302 ± 448 RFU; Fluorescence ([1]; 20,000 HUVEC/well, 96-well plate, AttoPhos 250 μM): 37889 ± 501 RFU; Fluorescence ([1]; 20,000 HUVEC/well, 96-well plate, AttoPhos 500 μM): 38528 ± 1540 RFU; Fluorescence ([1]; 20,000 HUVEC/well, half area 96-well (A/2) plate, AttoPhos 250 μM): 46409 ± 1009 RFU; Fluorescence ([1]; 20,000 HUVEC/well, half area 96-well (A/2) plate, AttoPhos 500 μM): 49706 ± 790 RFU; Km ([1]; HUVEC, BBTP 0.5 mM, 1 h at RT): 88 µM; Km (2008 acid phosphatase): 106 µM; Fluorescence ([2]; 50 HDMEC/well, AttoPhos 100 μM): 829 ± 26 RFU; Fluorescence ([2]; 50 HDMEC/well, AttoPhos 250 μM): 1014 ± 80 RFU; Fluorescence ([2]; 50 HDMEC/well, AttoPhos 500 μM): 1496 ± 4.6 RFU; Fluorescence ([2]; 100 HDMEC/well, AttoPhos 100 μM): 1609 ± 157 RFU; Fluorescence ([2]; 100 HDMEC/well, AttoPhos 250 μM): 1545 ± 253 RFU; Fluorescence ([2]; 100 HDMEC/well, AttoPhos 500 μM): 2032 ± 97 RFU; Fluorescence ([2]; 250 HDMEC/well, AttoPhos 100 μM): 2347 ± 209 RFU; Fluorescence ([2]; 250 HDMEC/well, AttoPhos 250 μM): 2383 ± 24 RFU; Fluorescence ([2]; 250 HDMEC/well, AttoPhos 500 μM): 3686 ± 270 RFU; Fluorescence ([2]; 500 HDMEC/well, AttoPhos 100 μM): 3682 ± 263 RFU; Fluorescence ([2]; 500 HDMEC/well, AttoPhos 250 μM): 3998 ± 313 RFU; Fluorescence ([2]; 500 HDMEC/well, AttoPhos 500 μM): 6404 ± 665 RFU; Fluorescence ([2]; 1,000 HDMEC/well, AttoPhos 100 μM): 6653 ± 483 RFU; Fluorescence ([2]; 1,000 HDMEC/well, AttoPhos 250 μM): 7594 ± 411 RFU; Fluorescence ([2]; 1,000 HDMEC/well, AttoPhos 500 μM): 9822 ± 930 RFU; Fluorescence ([2]; 2,500 HDMEC/well, AttoPhos 100 μM): 15566 ± 167 RFU; Fluorescence ([2]; 2,500 HDMEC/well, AttoPhos 250 μM): 13382 ± 310 RFU; Fluorescence ([2]; 2,500 HDMEC/well, AttoPhos 500 μM): 20580 ± 436 RFU; Fluorescence ([2]; 5,000 HDMEC/well, AttoPhos 100 μM): 28018 ± 817 RFU; Fluorescence ([2]; 5,000 HDMEC/well, AttoPhos 250 μM): 25468 ± 843 RFU; Fluorescence ([2]; 5,000 HDMEC/well, AttoPhos 500 μM): 34112 ± 1797 RFU; Fluorescence ([2]; 10,000 HDMEC/well, AttoPhos 100 μM): 35787 ± 1325 RFU; Fluorescence ([2]; 10,000 HDMEC/well, AttoPhos 250 μM): 40725 ± 1850 RFU; Fluorescence ([2]; 10,000 HDMEC/well, AttoPhos 500 μM): 54430 ± 133 RFU; Km ([2]; HDMEC, BBTP 1.5 mM, 1 h at RT, read-out: Km): 80 µM; Km ([2]; human dermal microvascular endothelial cells, read-out: apparent Km): ~100 µM; Km (HL-60 acid phosphatase): 108 µM; Km (K562 acid phosphatase): 82 µM; Km (Molt-4 acid phosphatase): 130 µM; Fluorescence ([3]; 250 3T3 cells/well): 1866 ± 100 RFU; Fluorescence ([3]; 500 3T3 cells/well): 3194 ± 172 RFU; Fluorescence ([3]; 1,000 3T3 cells/well): 6149 ± 176 RFU; Fluorescence ([3]; 2,000 3T3 cells/well): 10115 ± 840 RFU; Fluorescence ([3]; 4,000 3T3 cells/well): 21314 ± 1558 RFU; Fluorescence ([3]; 8,000 3T3 cells/well): 44831 ± 1793 RFU; Fluorescence ([3]; 10,000 3T3 cells/well): 49860 ± 556 RFU; Km ([3]; NIH 3T3 mouse embryonic fibroblasts, BBTP 0.5 mM, 1, at RT): 87 µM; Fluorescence (CHO-K1 acid phosphatase; 250 CHO-K1/well, AttoPhos 100 μM): 552 ± 26 RFU; Fluorescence (CHO-K1 acid phosphatase; 250 CHO-K1/well, AttoPhos 250 μM): 683 ± 36 RFU; Fluorescence (CHO-K1 acid phosphatase; 250 CHO-K1/well, AttoPhos 500 μM): 721 ± 90 RFU; Fluorescence (CHO-K1 acid phosphatase; 500 CHO-K1/well, AttoPhos 100 μM): 790 ± 70 RFU; Fluorescence (CHO-K1 acid phosphatase; 500 CHO-K1/well, AttoPhos 250 μM): 1008 ± 21 RFU; Fluorescence (CHO-K1 acid phosphatase; 500 CHO-K1/well, AttoPhos 500 μM): 1010 ± 126 RFU; Fluorescence (CHO-K1 acid phosphatase; 1,000 CHO-K1/well, AttoPhos 100 μM): 1031 ± 138 RFU; Fluorescence (CHO-K1 acid phosphatase; 1,000 CHO-K1/well, AttoPhos 250 μM): 1296 ± 64 RFU; Fluorescence (CHO-K1 acid phosphatase; 1,000 CHO-K1/well, AttoPhos 500 μM): 1400 ± 47 RFU; Fluorescence (CHO-K1 acid phosphatase; 2,000 CHO-K1/well, AttoPhos 100 μM): 2179 ± 156 RFU; Fluorescence (CHO-K1 acid phosphatase; 2,000 CHO-K1/well, AttoPhos 250 μM): 2628 ± 148 RFU; Fluorescence (CHO-K1 acid phosphatase; 2,000 CHO-K1/well, AttoPhos 500 μM): 2936 ± 382 RFU; Fluorescence (CHO-K1 acid phosphatase; 4,000 CHO-K1/well, AttoPhos 100 μM): 3905 ± 234 RFU; Fluorescence (CHO-K1 acid phosphatase; 4,000 CHO-K1/well, AttoPhos 250 μM): 4162 ± 122 RFU; Fluorescence (CHO-K1 acid phosphatase; 4,000 CHO-K1/well, AttoPhos 500 μM): 4832 ± 357 RFU; Fluorescence (CHO-K1 acid phosphatase; 8,000 CHO-K1/well, AttoPhos 100 μM): 7785 ± 684 RFU; Fluorescence (CHO-K1 acid phosphatase; 8,000 CHO-K1/well, AttoPhos 250 μM): 8356 ± 237 RFU; Fluorescence (CHO-K1 acid phosphatase; 8,000 CHO-K1/well, AttoPhos 500 μM): 9138 ± 440 RFU; Fluorescence (CHO-K1 acid phosphatase; 12,000 CHO-K1/well, AttoPhos 100 μM): 12481 ± 462 RFU; Fluorescence (CHO-K1 acid phosphatase; 12,000 CHO-K1/well, AttoPhos 250 μM): 12959 ± 124 RFU; Fluorescence (CHO-K1 acid phosphatase; 12,000 CHO-K1/well, AttoPhos 500 μM): 12198 ± 83 RFU; Km (CHO-K1 acid phosphatase; CHO-K1 Chinese hamster ovary, BBTP 0.5 mM, 1 h at RT): 172 µM; Km (T47-D acid phosphatase): 261 µM; Km (acid phosphatases): ~100 µM; Km (Alkaline phosphatase): ~2000 µM

— US5972639A, “Fluorescence-based assays for measuring cell proliferation” (Irori, priority 1997, dated 1999)
